# Experimental data taken from patent US4468399A, “2-[2-(2-Aminoalkyl-4-thiazolylmethylthio)alkyl]-amino-5-substituted-4-pyr imidones” (Eli Lilly and Company, priority 1983, dated 1984).
# How the values were obtained:
# [1] = tested on: H2 receptor; assay: H2 receptor blocking activity, isolated bullfrog gastric mucosa, histamine-stimulated acid secretion; type: cell-based, bullfrog (Rana catesbeiana); details: inhibition of acid secretion stimulated by 10^-5 M histamine; antagonist in serosal chamber; read-out: ED50 (the source's name)
# Description: A second assay for H2 receptor blocking activity employs the isolated bullfrog gastric mucosa--see Warrick and Lin, Communications in Chem. Pathology and Pharmacology, 13, 149 (1976). The assay is carried out as follows: The gastric mucosa of the bullfrog (Rana catesbeiana) is separated from the musculature of the stomach and placed between a pair of Ussing chambers made of lucite. The chambers are filled with frog Ringer solution and acid secretion is stimulated by addition of histamine to the serosal side of the mucosa at a final concentration of 10^-5 M. Acid output is automatically titrated to pH 4.5. After steady response to 10^-5 M of histamine is established, the antagonist (a compound of this invention) is added to the serosal chamber and the maximal inhibition by each concentration of the H2 -antagonist is recorded. From the dose-response curve, the ED50 of the drug is calculated.
# In Table 2, column 1 gives the substituent at 6 in the pyrimidone ring, column 2 the "B" group (see formula at the head of the Table), and column 3 the molar ED50.
# [2] = biological target: T1, H2 receptor (Rattus norvegicus, UniProt P25102); assay: H2 receptor blocking activity, histamine-induced relaxation of isolated rat uterine strips; type: cell-based, rat (female albino rats); details: antagonist 10^-5 molar, 30 minutes, dissociation constant from dose ratio of histamine ED50; read-out: -logKb (converted)
# T1 construct: uterine horns removed therefrom and suspended at ambient temperature in isolated organ baths; from tissue; host or cells: isolated uterine horn strips of estrone-treated female albino rats
# Description: The following assay for H2 receptor blocking activity was employed. Female albino rats are treated with estrone 24 hours prior to the initiation of the experiment. The rats are sacrificed and the uterine horns removed therefrom and suspended at ambient temperature in isolated organ baths containing De Jalon's solution. After equilibration, the uterine strips are exposed to 50 millimole aqueous potassium chloride, which produces a sustained contraction. When the uterus is so contracted, histamine produces a dosedependent H2 receptor-mediated relaxation. A control dose-response curve to histamine is constructed on each tissue. Following thorough washout of the histamine after obtaining the control dose-response curve, each antagonist (a compound of this invention) is added for 30 minutes at a concentration of 10^-5 molar. The uterine strips are then contracted with aqueous potassium chloride in the presence of the antagonist and a second dose-response curve to histamine obtained. In the presence of a competitive antagonist, the dose-response curve to histamine is shifted in parallel to the right with no depression of the maximum relative to the control curve. The dose ratio (DR) is calculated for each concentration of antagonist by dividing the ED50 of histamine in the presence of the competitive antagonist by the control ED50 for histamine. The dissociation constant (KB) of the antagonist is calculated from the dose-ratios by the following equation: […]
# Cimetidine is included as an internal standard.
# In the table, column 1 gives the name of the compound under test and column 2, the -logKb value for that compound.
# [3] = tested on: acid secretion; assay: in vivo antisecretory assay, gastric fistula dogs, histamine-stimulated gastric secretion; details: for recovery of acid secretions from an effective dose: after 3-4 hours; for antisecretory potency relative to cimetidine, iv route: iv infusion over 30 minute period, histamine iv infusion
# Description: An in vivo assay for the antisecretory action of drugs on acid secretion utilizes gastric fistula dogs with a vagally innervated gastric fistula and vagally denervated Heidenthain pouch. A steady-state gastric secretion is produced by the iv infusion of histamine. The antisecretory drugs under test are given either intravenously by infusion over a 30 minute period or orally 75 min. prior to collection of gastric secretion from the fistula. In this assay, 2-[2-(2-dimethylaminomethyl-4-thiazolylmethylthio)ethyl]amino-5-(3-pyridyl)methyl-4-pyrimidone was 11X cimetidine by the iv route and 14X cimetidine orally. The 6-methyl-2-pyridyl analog was 14.4X cimetidine intravenously.
# [4] = tested on: H2-receptor; details: cited from earlier work; for H2-receptor antagonist activity in words: prior art
# T1 sequence (P25102 whole entry): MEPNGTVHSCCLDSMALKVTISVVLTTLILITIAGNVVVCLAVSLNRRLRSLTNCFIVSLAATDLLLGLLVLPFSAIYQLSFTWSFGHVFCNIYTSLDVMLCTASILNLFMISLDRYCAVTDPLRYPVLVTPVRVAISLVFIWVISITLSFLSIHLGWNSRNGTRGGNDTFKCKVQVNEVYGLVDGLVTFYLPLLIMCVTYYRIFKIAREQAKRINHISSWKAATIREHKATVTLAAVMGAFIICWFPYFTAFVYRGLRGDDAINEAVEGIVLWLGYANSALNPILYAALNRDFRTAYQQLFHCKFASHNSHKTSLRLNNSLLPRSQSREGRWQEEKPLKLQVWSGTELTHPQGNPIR
IC50 [1],Kd [2],Structure (SMILES),further results
2000 nM,,"Cc1nc(NCCSCc2csc(CN(C)C)n2)[nH]c(=O)c1Cc1cccnc1 [Example 8, 2-[2-(2-dimethylaminomethyl-4-thiazolylmethylthio)ethyl]amino-5-(3-pyridyl)methyl-6-methyl-4-pyrimidone]",
252 nM,,"CN(C)Cc1nc(CSCCNc2ncc(Cc3ccc(O)nc3)c(=O)[nH]2)cs1 [Example 6, 2-[2-(2-dimethylaminomethyl-4-thiazolylmethylthio)ethyl]amino-5-(6-hydroxy-3-pyridyl)methyl-4-pyrimidone]",
1350 nM,11.2 nM,"Cc1ccc(Cc2cnc(NCCSCc3csc(CN(C)C)n3)[nH]c2=O)cn1 [Example 3, 2-[2-(2-dimethylaminomethyl-4-thiazolylmethylthio)ethyl]amino-5-(6-methyl-3-pyridyl)methyl-4-pyrimidone]",
,,"CNC(=NCCSCc1nc[nH]c1C)NC#N [cimetidine, N-cyano-N'-methyl-N""-[2-([(5-methyl-1H-imidazol-4-yl)methyl]thio)ethyl]guanidine, reference compound]",recovery of acid secretions from an effective dose [3]: ~50%
2350 nM,3.89 nM,"Cc1cc(Cc2cnc(NCCSCc3csc(CN(C)C)n3)[nH]c2=O)cnc1C [Example 5, 2-[2-(2-dimethylaminomethyl-4-thiazolylmethylthio)ethyl]amino-5-(5,6-dimethyl-3-pyridyl)methyl-4-pyrimidone]",
,,CNC(=S)NCCCCc1cnc[nH]1 [burimamide],H2-receptor antagonist activity in words [4]: powerful H2 -receptor antagonist
3000 nM,,"COc1cc(Cc2cnc(NCCSCc3csc(CN(C)C)n3)[nH]c2=O)ccn1 [Example 7, 2-[2-(2-dimethylaminomethyl-4-thiazolylmethylthio)ethyl]amino-5-(2-methoxy-4-pyridyl)methyl-4-pyrimidone]",
11100 nM,4.37 nM,"CN(C)Cc1nc(CSCCNc2nc(=O)c(Cc3ccc4c(c3)OCO4)c[nH]2)cs1 [Example 2, 2-[2-(2-dimethylaminomethyl-4-thiazolylmethylthio)ethyl]amino-5-[5-(1,3-benzodioxoly)]methyl-4-pyrimidone]",
,,CNC(=NC#N)NCCSCc1csc(NC(=N)N)n1 [2-guanidino-4-[2-(2-cyano-3-methylguanidino)ethylthiomethyl]thiazole],H2-receptor antagonist activity in words [4]: greatly increased activity over cimetidine
12600 nM,60.3 nM,"COc1ccc(Cc2cnc(NCCSCc3csc(CN(C)C)n3)[nH]c2=O)cn1 [Example 4, 2-[2-(2-dimethylaminomethyl-4-thiazolylmethylthio)ethyl]amino-5-(6-methoxy-3-pyridyl)methyl-4-pyrimidone]",
,,Cc1cccc(Cc2c[nH]c(NCCSCc3csc(CN(C)C)n3)nc2=O)n1 [6-methyl-2-pyridyl analog],"antisecretory potency relative to cimetidine, iv route [3]: 14.4 X cimetidine"
196 nM,12.9 nM,"CN(C)Cc1nc(CSCCNc2ncc(Cc3ccncc3)c(=O)[nH]2)cs1 [Example 11, 2-[2-(2-dimethylaminomethyl-4-thiazolylmethylthio)ethyl]amino-5-(4-pyridyl)methyl-4-pyrimidone]",
163 nM,17.4 nM,"CN(C)Cc1nc(CSCCNc2ncc(Cc3ccccn3)c(=O)[nH]2)cs1 [Example 10, 2-[2-(2-dimethylaminomethyl-4-thiazolylmethylthio)ethyl]amino-5-(2-pyridyl)methyl-4-pyrimidone]",
115 nM,1.1 nM,"CN(C)Cc1nc(CSCCNc2ncc(Cc3cccnc3)c(=O)[nH]2)cs1 [Example 1, 2-[2-(2-dimethylaminomethyl-4-thiazolylmethylthio)ethyl]amino-5-(3-pyridyl)methyl-4-pyrimidone]","recovery of acid secretions from an effective dose [3]: about 25%; antisecretory potency relative to cimetidine, iv route [3]: 11 X cimetidine; antisecretory potency relative to cimetidine, orally ([3]; orally 75 min. prior to collection of gastric secretion): 14 X cimetidine"
,,C#CCNC(=C[N+](=O)[O-])NCCSCc1ccc(CN(C)C)o1 [1-nitro-2-(2-propynylamino)-2-(2-[(5-dimethylaminomethyl-2-furyl)methylthio]ethylamino)ethylene],"activity relative to cimetidine in a standard H2-receptor assay ([4]; U.S. Pat. No. 4,203,909): 7.45 times the activity of cimetidine"
603 nM,,"CN(C)Cc1nc(CSCCNc2ncc(Cc3ccnc(O)c3)c(=O)[nH]2)cs1 [Example 9, 2-[2-(2-dimethylaminomethyl-4-thiazolylmethylthio)ethyl]amino-5-(2-hydroxy-4-pyridyl)methyl-4-pyrimidone]",
